Reference: patent publication US11712438B2, “Phenyl derivatives as PGE2 receptor modulators” (IDORSIA PHARMACEUTICALS LTD, priority 2017, dated 2023)

Key:
PTGER2 (EP2) = PTGER2 (EP2) (Homo sapiens, UniProt P43116); assay: cell-based
PTRGER4 (EP4) = PTRGER4 (EP4) (Homo sapiens, UniProt P35408); assay: cell-based;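 further: assay plate preincubated 15 min at 37 °C, after which PGE2 was added at 20 nM final and incubation continued 120 min at 37 °C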
Chain of PTRGER4 (EP4) (P35408 whole entry): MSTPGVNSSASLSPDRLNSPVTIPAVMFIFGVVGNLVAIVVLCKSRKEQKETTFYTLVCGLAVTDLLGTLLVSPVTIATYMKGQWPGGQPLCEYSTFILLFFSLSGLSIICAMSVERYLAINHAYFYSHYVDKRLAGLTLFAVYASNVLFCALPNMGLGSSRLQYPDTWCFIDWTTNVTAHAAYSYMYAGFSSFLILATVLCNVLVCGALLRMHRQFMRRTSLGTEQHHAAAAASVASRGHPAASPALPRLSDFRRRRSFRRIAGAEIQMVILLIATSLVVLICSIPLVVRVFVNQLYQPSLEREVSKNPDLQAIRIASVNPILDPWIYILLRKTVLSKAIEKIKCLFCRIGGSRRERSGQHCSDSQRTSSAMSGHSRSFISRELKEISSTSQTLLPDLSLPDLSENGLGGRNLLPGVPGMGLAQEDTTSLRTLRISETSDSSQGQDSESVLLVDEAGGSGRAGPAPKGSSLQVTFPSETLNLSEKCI

Chain of PTGER2 (EP2) (P43116 whole entry): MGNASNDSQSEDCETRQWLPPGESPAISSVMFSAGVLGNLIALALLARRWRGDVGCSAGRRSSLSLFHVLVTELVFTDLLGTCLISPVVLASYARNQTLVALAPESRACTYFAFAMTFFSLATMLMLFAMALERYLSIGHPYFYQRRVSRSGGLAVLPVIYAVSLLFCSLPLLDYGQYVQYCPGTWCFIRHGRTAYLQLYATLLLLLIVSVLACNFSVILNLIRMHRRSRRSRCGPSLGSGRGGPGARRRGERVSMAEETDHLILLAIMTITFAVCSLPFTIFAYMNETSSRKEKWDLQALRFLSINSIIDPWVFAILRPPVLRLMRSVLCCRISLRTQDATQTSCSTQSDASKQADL

Structure (SMILES)	IC50 (PTGER2 (EP2))	IC50 (PTRGER4 (EP4))
COc1cc(C(F)(F)F)cc(F)c1CCNc1cc(-c2ccc(C(=O)O)c(SC)c2)ncn1 [Example 230, 4-{6-[2-(2-Fluoro-6-methoxy-4-trifluoromethyl-phenyl)-ethylamino]-pyrimidin-4-yl}-2-methylsulfanyl-benzoic acid]	662 nM	152 nM
CCOc1cc(-c2cc(NCCc3c(F)cccc3F)ncn2)ccc1-c1noc(=O)[nH]1 [Example 233, 3-(4-(64(2,6-Difluorophenethypamino)pyrimidin-4-yl)-2-ethoxyphenyl)-[1,2,4]oxadiazol-5(4H)-one]	222 nM	398 nM
O=C(O)Cc1ccc(-c2cc(NCCc3c(F)cc(Br)cc3F)ncn2)cc1OC(F)(F)F [Example 236, (4-{6-[2-(4-Bromo-2,6-difluoro-phenyl)-ethylamino]-pyrimidin-4-yl}-2-trifluoromethoxy-phenyl)-acetic acid]	265 nM	351 nM
O=CNc1ccc(-c2cc(NCCc3c(F)cc(Br)cc3F)ncn2)cc1 [Example 238, N-(4-{6-[2-(4-Bromo-2,6-difluoro-phenyl)-ethylamino]-pyrimidin-4-yl}-phenyl)-formamide]	251 nM	438 nM
CCOc1cc(-c2cc(NCCc3c(F)cc(Br)cc3F)ncn2)ccc1C(=O)C(=O)O [Example 239, (4-{6-[2-(4-Bromo-2,6-difluoro-phenyl)-ethylamino]-pyrimidin-4-yl}-2-ethoxy-phenyl)-oxo-acetic acid]	300 nM	387 nM
O=c1c(O)c(-c2ccc(-c3cc(NCCc4c(F)cc(Br)cc4F)ncn3)cc2)c1=O [Example 243, 3-(4-{6-[2-(4-Bromo-2,6-difluoro-phenyl)-ethylamino]-pyrimidin-4-yl}-phenyl)-4-hydroxy-cyclobut-3-ene-1,2-dione]	41 nM	61 nM
COC(=O)c1ccc(-c2cc(NCCc3c(F)cc(Br)cc3F)ncn2)cc1SC [Example 246, 4-{6-[2-(4-Bromo-2,6-difluoro-phenyl)-ethylamino]-pyrimidin-4-yl}-2-methylsulfanyl-benzoic acid methyl ester]	479 nM	277 nM
CCOC(=O)CCc1sc(-c2cc(NCCc3c(F)cc(Br)cc3F)ncn2)cc1OCC [Example 247, 3-(5-{6-[2-(4-Bromo-2,6-difluoro-phenyl)-ethylamino]-pyrimidin-4-yl}-3-ethoxy-thiophen-2yl)-propionic acid ethyl ester]	799 nM	278 nM
CCc1cc(-c2cc(NCCc3c(F)cc(Br)cc3F)ncn2)ccc1C(=O)O [Example 249, 4-{6-[2-(4-Bromo-2,6-difluoro-phenyl)-ethylamino]-pyrimidin-4-yl}-2-ethyl-benzoic acid]	110 nM	467 nM
CC(C)Oc1cc(-c2cc(NCCc3c(F)cc(Br)cc3F)ncn2)ccc1C(=O)O [Example 251, 4-{6-[2-(4-Bromo-2,6-difluoro-phenyl)-ethylamino]-pyrimidin-4-yl}-2-isopropoxy-benzoic acid]	254 nM	831 nM
CCc1cc(-c2cc(NCCc3c(F)cc(Br)cc3F)ncn2)cc(Cl)c1CC(=O)O [Example 253, (4-{6-[2-(4-Bromo-2,6-difluoro-phenyl)-ethylamino]-pyrimidin-4-yl}-2-chloro-6-ethyl-phenyl)-acetic acid]	191 nM	170 nM
Cc1cc(-c2cc(NCCc3c(F)cc(Br)cc3F)ncn2)ccc1CC(=O)O [Example 254, (4-{6-[2-(4-Bromo-2,6-difluoro-phenyl)-ethylamino]-pyrimidin-4-yl}-2-methyl-phenyl)-acetic acid]	753 nM	880 nM

Second part, the molecule after the results:

IC50 (PTGER2 (EP2))	IC50 (PTRGER4 (EP4))	Structure (SMILES)
344 nM	283 nM	Cc1cc(-c2cc(NCCc3c(F)cc(Br)cc3F)ncn2)cc(C)c1CC(=O)O [Example 255, (4-{6-[2-(4-Bromo-2,6-difluoro-phenyl)-ethylamino]-pyrimidin-4-yl}-2,6-dimethyl-phenyl)-acetic acid]
574 nM	584 nM	Cc1cc(-c2cc(NCCc3c(F)cc(Br)cc3F)ncn2)cc(F)c1CC(=O)O [Example 256, (4-{6-[2-(4-Bromo-2,6-difluoro-phenyl)-ethylamino]-pyrimidin-4-yl}-2-fluoro-6-methyl-phenyl)-acetic acid]
212 nM	239 nM	CCc1cc(-c2cc(NCCc3c(F)cc(Br)cc3F)ncn2)cc(C)c1CC(=O)O [Example 257, (4-{6-[2-(4-Bromo-2,6-difluoro-phenyl)-ethylamino]-pyrimidin-4-yl}-2-ethyl-6-methyl-phenyl)-acetic acid]
77 nM	174 nM	Fc1cc(Br)cc(F)c1CCNc1cc(-c2ccc3[nH]ccc3c2)ncn1 [Example 258, [2-(4-Bromo-2,6-difluoro-phenyl)-ethyl]-[6-(1H-indol-5yl)-pyrimidin-4-yl]amine]
204 nM	755 nM	O=C(O)Cc1ccc(-c2cc(NCCc3c(F)cc(Br)cc3F)ncn2)cc1OC1CC1 [Example 260, (4-{6-[2-(4-Bromo-2,6-difluoro-phenyl)-ethylamino]-pyrimidin-4-yl}-2-cyclopropoxy-phenyl)-acetic acid]
88 nM	149 nM	CN1C(=O)NCc2ccc(-c3cc(NCCc4c(F)cc(Br)cc4F)ncn3)cc21 [Example 262, 7-{6-[2-(4-Bromo-2,6-difluoro-phenyl)-ethylamino]-pyrimidin-4-yl}-1-methyl-3,4-dihydro-1H-quinazolin-2-one]
372 nM	465 nM	Cc1cc(-c2cc(NCCc3c(F)cc(Br)cc3F)ncn2)cc(Cl)c1CC(=O)O [Example 264, (4-{6-[2-(4-Bromo-2,6-difluoro-phenyl)-ethylamino]-pyrimidin-4-yl}-2-chloro-6-methyl-phenyl)-acetic acid]
242 nM	452 nM	NC(=O)Nc1ccc(-c2cc(NCCc3c(F)cc(Br)cc3F)ncn2)cc1 [Example 265, (4-{6-[2-(4-Bromo-2,6-difluoro-phenyl)-ethylamino]-pyrimidin-4-yl}-phenyl)-urea]
65 nM	368 nM	O=c1[nH]c2ccc(-c3cc(NCCc4c(F)cc(Br)cc4F)ncn3)cc2o1 [Example 266, 6-{6-[2-(4-Bromo-2,6-difluoro-phenyl)-ethylamino]-pyrimidin-4-yl}-3H-benzooxazol-2-one]
70 nM	183 nM	Fc1cc(Br)cc(F)c1CCNc1cc(-c2ccc3[nH]ncc3c2)ncn1 [Example 267, [2-(4-Bromo-2,6-difluoro-phenyl)-ethyl]-[6-(1H-indazol-5-yl)-pyrimidin-4-yl]amine]
258 nM	768 nM	CCn1cc(-c2cc(NCCc3c(F)cc(Br)cc3F)ncn2)cc1C(=O)O [Example 269, 4-{6-[2-(4-Bromo-2,6-difluoro-phenyl)-ethylamino]-pyrimidin-4-yl}-1-ethyl-1H-pyrrole-2-carboxylic acid]
316 nM	700 nM	CCCn1cc(-c2cc(NCCc3c(F)cc(Br)cc3F)ncn2)cc1C(=O)O [Example 270, 4-{6-[2-(4-Bromo-2,6-difluoro-phenyl)-ethylamino]-pyrimidin-4-yl}-1-propyl-1H-pyrrole-2-carboxylic acid]
174 nM	426 nM	O=C(O)c1coc2cc(-c3cc(NCCc4c(F)cc(Br)cc4F)ncn3)ccc12 [Example 272, 6-{6-[2-(4-Bromo-2,6-difluoro-phenyl)-ethylamino]-pyrimidin-4-yl}-benzofuran-3-carboxylic acid]
